Data: patent publication US20260184807A1, “Methods for Treating Rheumatoid Arthritis Using a Syndecan-1 Inhibitor or Syntenin-1 Inhibitor” (The United States Government as represented by the …, priority 2022, published 2026)

System: HUVECs
Assay: Metabolite quantification in Syntenin-1 treated HUVECs (colorimetric assay)
Assay type: cell-based, human
Details: Syntenin-1 1000 ng/ml 24 h, HIF1αi 2 μM, mTORi 1 μM, FIGS. 13I-K
Experimental: HUVECs were treated with 20 Syntenin-1 (1000 ng/ml) for 0-60 mins to detect expression of GLUT1. HK2. PFK2, cMYC. HIF1α, and LDHA (FIG. 13B) or 0-48 h to detect HK2, PFK2, mTOR/RAPTOR and LDHA (FIG. 13C) and actin was visualized as equal loading, (n=3). HUVECs were treated with PBS or Syntenin-1 (1000 ng/ml) in the presence or absence of 2-DG (5 mM), cMYCi (50 μM) and/or mTORi (1 μM) or HIF1αi (2 μM) to quantify transcription of HIF1α (FIG. 13E, n=10), RAPTOR (FIG. 13F, n=7). TNF (FIG. 13H, n=5). […] HUVECs were treated with PBS or Syntenin-1 (1000 ng/ml) in the presence or absence of SDC-1 Ab (SDCab: 1:100). […] Data are presented as mean±SEM; significant differences were determined by the Mann-Whitney test, 2way ANOVA, or one-way ANOVA. *p<0.05. **p<0.01, ***p<0.001, ****p<0.0001.
FIGS. 20A-F show blood Syntenin-1 and SDC-1 relative levels are unaffected by RA therapy and glycolytic metabolites can modulate inflammatory factors and oxidative metabolites in Syntenin-1 reprogrammed endothelial cells. Relative expression of Syntenin-1 (FIG. 20A) or SDC-1 (FIG. 20B) was determined by RNAseq (Lewis M J, et al. Cell reports. 2019; 28:2455-2470 e2455) in blood from RA non-responsive (Non-R)(ΔDAS28≤0.6, n=16) or those with moderate (ΔDAS28≤1.2 & >0.6, n=22) or good response (ΔDAS28>1.2, n=21). […]
Metabolite quantification. […]

## CO[C@H]1C[C@@H]2CC[C@@H](C)[C@@](O)(O2)C(=O)C(=O)N2CCCC[C@H]2C(=O)O[C@H]([C@H](C)C[C@@H]2CC[C@@H](OCCO)[C@H](OC)C2)CC(=O)[C@H](C)/C=C(\C)[C@@H](O)[C@@H](OC)C(=O)[C@H](C)C[C@H](C)/C=C/C=C/C=C/1C [mTORi, Everolimus]
  oxidative metabolites, AMPK, PGC-1a, and citrate: unchanged
